Several values for one entry are separate records, joined by “and”; a condition that tells them apart may be missing. Identical values can stand only once. Inconclusive results and toxic doses are left out. Rule for the calls: active = survival T/C of 150% or more; inactive = T/C below 125% in these data. Peptide text beside a SMILES is read from it.
System: P388 leukemia ip, CD2F1 mice, survival T/C
Assay: NCI In Vivo Anticancer Drug Screen. Data for tumor model P388 Leukemia (intraperitoneal) in CD2F1 (CDF1) mice
Settings: endpoint: median survival time, higher = longer survival
How it was run: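 Mice carrying the transplanted tumor received test compound or vehicle. Survival was recorded in each group, and the value is the treated-group measurement divided by that of the vehicle-treated control group.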

[1] = dose: 50.0 mg/kg/injection, schedule: Q01DX005 (ip), vehicle: saline with Tween-80
[2] = dose: 100.0 mg/kg/injection, schedule: Q01DX005 (ip), vehicle: saline with Tween-80
[3] = dose: 200.0 mg/kg/injection, schedule: Q01DX005 (ip), vehicle: saline with Tween-80
[4] = dose: 100.0 mg/kg/injection, schedule: Q01DX009 (ip), vehicle: saline with Tween-80
[5] = dose: 200.0 mg/kg/injection, schedule: Q01DX009 (ip), vehicle: saline with Tween-80
[6] = dose: 400.0 mg/kg/injection, schedule: Q01DX009 (ip), vehicle: saline with Tween-80
[7] = dose: 50.0 mg/kg/injection, schedule: Q01DX009 (ip), vehicle: saline with Tween-80
[8] = dose: 60.0 mg/kg/injection, schedule: Q01DX005 (ip), vehicle: saline with Tween-80
[9] = dose: 120.0 mg/kg/injection, schedule: Q01DX005 (ip), vehicle: saline with Tween-80
[10] = dose: 240.0 mg/kg/injection, schedule: Q01DX005 (ip), vehicle: saline with Tween-80
[11] = dose: 25.0 mg/kg/injection, schedule: Q01DX005 (ip), vehicle: saline with Tween-80
[12] = dose: 50.0 mg/kg/injection, schedule: Q01DX005 (ip), vehicle: saline
[13] = dose: 100.0 mg/kg/injection, schedule: Q01DX005 (ip), vehicle: saline
[14] = dose: 200.0 mg/kg/injection, schedule: Q01DX005 (ip), vehicle: saline
[15] = dose: 100.0 mg/kg/injection, schedule: Q01DX001 (ip), vehicle: saline with Tween-80
[16] = dose: 200.0 mg/kg/injection, schedule: Q01DX001 (ip), vehicle: saline with Tween-80
[17] = dose: 400.0 mg/kg/injection, schedule: Q01DX001 (ip), vehicle: saline with Tween-80
[18] = dose: 50.0 mg/kg/injection, schedule: Q01DX005 (ip), vehicle: Klucel (hydroxypropylcellulose) (HPC)

Measured: T/C

CCN(CC)C(=O)c1cc2c(=O)c3c(ccc4ccccc43)oc2n(C)c1=O
inactive: [1] 98 % of control | [2] 90 % of control | [3] 90 % of control

COCCOC(=O)CCCCC(=O)OCCOC
inactive: [4] 100 % of control | dose: 100.0 mg/kg/injection, schedule: Q04DX003 (ip), vehicle: saline sonified 100 % of control | [5] 104 % of control | dose: 200.0 mg/kg/injection, schedule: Q04DX003 (ip), vehicle: saline sonified 100 % of control | [6] 109 % of control | dose: 400.0 mg/kg/injection, schedule: Q04DX003 (ip), vehicle: saline sonified 95 % of control

O=c1oc2c(c(N(c3ccccc3)c3ccccc3)c1Cl)CSc1ccccc1-2
inactive: dose: 100.0 mg/kg/injection, schedule: Q04DX003 (ip), vehicle: saline with Tween-80 90 % of control

CC1(C)OC2CC(=O)OCC23C1CC(=O)C1(C)C2=CC(=O)OC(c4ccoc4)C2(C)CCC13 (centres undefined)
inactive: dose: 0.5 mg/kg/injection, schedule: Q01DX009 (ip), vehicle: saline + alcohol 106 % of control | dose: 1.0 mg/kg/injection, schedule: Q01DX009 (ip), vehicle: saline + alcohol 108 % of control | dose: 2.0 mg/kg/injection, schedule: Q01DX009 (ip), vehicle: saline + alcohol 101 % of control | dose: 4.0 mg/kg/injection, schedule: Q01DX009 (ip), vehicle: saline + alcohol 105 % of control

NC(Cc1cnc[nH]1)C(=O)N1CCCC1C(=O)NC(CCC(=O)O)C(=O)O (stereo not drawn) (H-His-Pro-Glu-OH; configuration not given here)
inactive: dose: 7.5 mg/kg/injection, schedule: Q01DX009 (ip), vehicle: saline 102 % of control | dose: 15.0 mg/kg/injection, schedule: Q01DX009 (ip), vehicle: saline 100 % of control | dose: 30.0 mg/kg/injection, schedule: Q01DX009 (ip), vehicle: saline 109 % of control

CCOC(=O)c1ccc(NC(Cc2ccccc2)=NC(C)(C)C)cc1
inactive: [7] 98 % of control | [4] 94 % of control | [5] 88 % of control

CC(=O)NC1C=CC(=O)O1 (centres undefined)
inactive: dose: 2.1 mg/kg/injection, schedule: Q01DX010 (ip), vehicle: saline 104 % of control

CC1Cc2nc3ccccc3nc2C1
inactive: [8] 99 % of control | [9] 99 % of control | [10] 104 % of control

CC(C)(C)C1CCC2(CC1)OCC1CCCN12 (centres undefined)
inactive: [11] 88 % of control | [1] 88 % of control | [2] 95 % of control

O=C(c1ccc(-c2ccccc2)cc1)C(Br)C(Br)c1ccccc1 (centres undefined)
inactive: dose: 25.0 mg/kg/injection, schedule: Q01DX009 (ip), vehicle: other 90 % of control | dose: 100.0 mg/kg/injection, schedule: Q01DX009 (ip), vehicle: other 90 % of control | dose: 200.0 mg/kg/injection, schedule: Q01DX009 (ip), vehicle: other 101 % of control | dose: 400.0 mg/kg/injection, schedule: Q01DX009 (ip), vehicle: other 116 % of control

C/C(=C/C(=O)Nc1ccccc1)Nc1onc(C)c1C
inactive: [8] 102 % of control | [9] 96 % of control | [10] 90 % of control

S=C1SCCCN1c1ccccc1
inactive: dose: 100.0 mg/kg/injection, schedule: Q04DX003 (ip), vehicle: Klucel (hydroxypropylcellulose) (HPC) 100 % of control | dose: 200.0 mg/kg/injection, schedule: Q04DX003 (ip), vehicle: Klucel (hydroxypropylcellulose) (HPC) 110 % of control

CCOC(=O)N(C)N(C)C(=O)OCC
inactive: [12] 100 % of control | [13] 100 % of control | [14] 100 % of control

O=c1c2cc(Cl)cc(Cl)c2nc2n1S(=O)(=O)c1ccccc1N2c1ccccc1
inactive: [15] 94 % of control | [16] 91 % of control | [17] 95 % of control

O=C1CN=C(c2ccc[nH]2)c2cc(Cl)ccc2N1
inactive: dose: 25.0 mg/kg/injection, schedule: Q01DX009 (ip), vehicle: Klucel (hydroxypropylcellulose) (HPC) 120 % of control | dose: 25.0 mg/kg/injection, schedule: Q01DX009 (ip), vehicle: saline with Tween-80 109 % of control | dose: 50.0 mg/kg/injection, schedule: Q01DX001 (ip), vehicle: saline 109 % of control | [7] 100 % of control | dose: 100.0 mg/kg/injection, schedule: Q01DX001 (ip), vehicle: saline 109 % of control | [4] 104 % of control | dose: 200.0 mg/kg/injection, schedule: Q01DX001 (ip), vehicle: saline 104 % of control | [5] 118 % of control | dose: 400.0 mg/kg/injection, schedule: Q01DX001 (ip), vehicle: saline 100 % of control | [6] 118 % of control

NC(=O)c1c(-c2ccccc2)nc2sccn12
inactive: dose: 100.0 mg/kg/injection, schedule: Q01DX001 (ip), vehicle: Klucel (hydroxypropylcellulose) (HPC) 98 % of control | dose: 200.0 mg/kg/injection, schedule: Q01DX001 (ip), vehicle: Klucel (hydroxypropylcellulose) (HPC) 90 % of control | dose: 400.0 mg/kg/injection, schedule: Q01DX001 (ip), vehicle: Klucel (hydroxypropylcellulose) (HPC) 92 % of control

COc1ccc(/C=C/C(=O)c2ccccc2)cc1OC
inactive: [7] 103 % of control | [4] 114 % of control | [5] 100 % of control

CSc1nc(NC2OC(CO)C(O)C(O)C2O)c(C=O)c(=O)[nH]1 (centres undefined)
inactive: [8] 92 % of control | [9] 95 % of control | [10] 87 % of control

[N-]=[N+]=CC(=O)C1OC1c1ccc(Br)cc1 (centres undefined)
inactive: [11] 98 % of control | [1] 93 % of control | [2] 91 % of control | [3] 95 % of control

NC(=O)C1CCCN(C2OC(COP(=O)(O)OP(=O)(O)OCC3OC(n4nnc5c(=O)[nH]c(N)nc54)C(O)C3O)C(O)C2O)C1 (centres undefined)
inactive: [12] 115 % of control | [13] 98 % of control | [14] 87 % of control

CC1(C)COC(=O)C(C#N)=C1CBr
inactive: dose: 12.5 mg/kg/injection, schedule: Q01DX005 (ip), vehicle: Klucel (hydroxypropylcellulose) (HPC) 105 % of control | dose: 25.0 mg/kg/injection, schedule: Q01DX005 (ip), vehicle: Klucel (hydroxypropylcellulose) (HPC) 105 % of control | [18] 99 % of control and 116 % of control

Cc1oc2ccccc2c(=O)c1C(=O)O
inactive: [18] 99 % of control | dose: 100.0 mg/kg/injection, schedule: Q01DX005 (ip), vehicle: Klucel (hydroxypropylcellulose) (HPC) 100 % of control | dose: 200.0 mg/kg/injection, schedule: Q01DX005 (ip), vehicle: Klucel (hydroxypropylcellulose) (HPC) 101 % of control

COC1CC(C23C4CC2C3C2CC/C=C\CCC24)CC1OC (centres undefined)
inactive: [7] 98 % of control | [4] 100 % of control | [5] 102 % of control

O=C1OCC/C1=C/OS(=O)(=O)C(F)(F)F
inactive: dose: 18.8 mg/kg/injection, schedule: Q01DX009 (ip), vehicle: distilled water + Tween-80 101 % of control and 107 % of control | dose: 37.5 mg/kg/injection, schedule: Q01DX009 (ip), vehicle: distilled water + Tween-80 110 % of control | dose: 75.0 mg/kg/injection, schedule: Q01DX009 (ip), vehicle: distilled water + Tween-80 118 % of control and 123 % of control

Nc1nc(=O)cnn1C1OC(CO)C(O)C1O (centres undefined)
inactive: [15] 98 % of control | [16] 97 % of control | [17] 103 % of control

O=C1CSC(=S)N1c1cccc(F)c1
inactive: dose: 50.0 mg/kg/injection, schedule: Q01DX009 (ip), vehicle: suspension in saline 108 % of control | dose: 100.0 mg/kg/injection, schedule: Q01DX009 (ip), vehicle: suspension in saline 100 % of control | dose: 200.0 mg/kg/injection, schedule: Q01DX009 (ip), vehicle: suspension in saline 100 % of control

Cc1ccc(S(=O)(=O)N/N=C2\CC/C(=N\NS(=O)(=O)c3ccc(C)cc3)[C@@H]3CC=CC[C@H]23)cc1
inactive: [1] 92 % of control | [2] 92 % of control | [3] 89 % of control

Cc1cc(O)c2c(=O)c(=O)c2c1
inactive: [1] 101 % of control | [2] 103 % of control

BrCC(Br)=C(Br)Br
inactive: dose: 3.12 mg/kg/injection, schedule: Q01DX009 (ip), vehicle: saline with Tween-80 104 % of control | dose: 6.25 mg/kg/injection, schedule: Q01DX009 (ip), vehicle: saline with Tween-80 106 % of control | dose: 12.5 mg/kg/injection, schedule: Q01DX009 (ip), vehicle: saline with Tween-80 98 % of control
